Data published in US5208224A, “Phosphorus containing compounds as antihypercholesterolemic and antiatherosclerotic agents” (Warner-Lambert Company, priority 1991, dated 1993).
Like-named read-outs stand apart in the source and are kept apart here.

Target: T1, acyl-CoA:cholesterol acyltransferase (ACAT) (Oryctolagus cuniculus, UniProt G1SFD9)
T1 construct: tissue preparation containing rabbit intestinal microsomes; from tissue; host or cells: rabbit intestinal microsomes
T1 sequence (G1SFD9 1-524): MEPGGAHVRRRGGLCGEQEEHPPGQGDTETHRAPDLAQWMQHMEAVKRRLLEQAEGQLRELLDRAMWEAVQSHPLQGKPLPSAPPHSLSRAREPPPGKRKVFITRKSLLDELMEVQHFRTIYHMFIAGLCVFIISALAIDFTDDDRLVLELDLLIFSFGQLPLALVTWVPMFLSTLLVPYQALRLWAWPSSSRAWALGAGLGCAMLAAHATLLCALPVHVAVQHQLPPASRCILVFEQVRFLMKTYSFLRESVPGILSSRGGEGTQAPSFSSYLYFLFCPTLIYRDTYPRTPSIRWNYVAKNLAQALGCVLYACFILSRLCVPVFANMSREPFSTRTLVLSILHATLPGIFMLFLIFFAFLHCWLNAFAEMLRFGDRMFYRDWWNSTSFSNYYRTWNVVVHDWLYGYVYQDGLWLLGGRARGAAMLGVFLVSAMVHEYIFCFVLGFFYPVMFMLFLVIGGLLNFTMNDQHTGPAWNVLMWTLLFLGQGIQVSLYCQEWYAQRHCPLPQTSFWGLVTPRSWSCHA
Assay: In vitro inhibition of ACAT: formation of radiolabeled cholesterol oleate from radiolabeled oleic acid in rabbit intestinal microsomes
Assay type: biochemical
Description: The test assesses the ability of a test compound to inhibit the acylation of cholesterol by oleic acid by measuring the amount of radiolabeled cholesterol oleate formed from radiolabeled oleic acid in a tissue preparation containing rabbit intestinal microsomes.

[1] = rabbit intestinal microsomes, read-out: IC50 (concentration of test compound required to inhibit cholesteryl oleate formation to 50% of control)

Row | Structure (SMILES) | IC50 [1] | IC50
1 | CCCCCCC(C)OP(=O)(CC(=O)Nc1c(C(C)C)cccc1C(C)C)c1ccccc1 (racemic) [Example 11, (±)-2-[2,6-Bis(1-methylethyl)phenyl]amino]-2-oxoethyl]phenylphosphinic Acid, 1-Methylheptyl Ester] | 35 nM | –
2 | CCCCCCCCCCC1CN(Cc2ccccc2)P(=O)(OCC(=O)Nc2c(C(C)C)cccc2C(C)C)O1 (racemic) [Example 30, (±)-N-[2,6-Bis(1-methylethyl)phenyl]2-[[5-decyl-3-(phenylmethyl)-1,3,2-oxazaphosphonolidin-2-yl]-oxy]acetamide, P-oxide] | – | 33 nM
3 | CCCCCCCCCOP(=O)(OCC)N(CC(=O)Nc1c(C(C)C)cccc1C(C)C)Cc1ccccc1 (racemic) [Example 32, (±)-[2-[[2,6 Bis(1-methylethyl)phenyl]amino]-2-oxoethyl](phenylmethyl)phosphoramidic Acid, Ethyl Nonyl Ester] | – | 14 nM
4 | CCCCCCCCCOP(=O)(Oc1ccccc1)N(CC(=O)Nc1c(C(C)C)cccc1C(C)C)Cc1ccccc1 (racemic) [Example 34, (±)-[[[2,6-Bis(1-methylethyl)phenyl]amino]2-oxoethyl]-(phenylmethyl)phosphoramidic Acid, Nonyl Phenyl Ester] | – | 23 nM
5 | CCCCCCCCCCCCC(C)OP(=O)(Oc1ccccc1)N(CC(=O)Nc1c(C(C)C)cccc1C(C)C)Cc1ccccc1 (racemic) [Example 35, (±)-[2-[[2,6-Bis(1-methylethyl)phenyl]amino]-2-oxoethyl](phenylmethyl)phosphoramidic Acid, 1-Methyltridecyl Phenyl Ester] | – | 160 nM
6 | CC(C)c1cccc(C(C)C)c1NC(=O)CP(=O)(c1ccccc1)c1ccccc1 [Example 2, N-2,6-Bis(1-methylethyl)phenyl-2-(diphenylphosphinyl)acetamide] | 2300 nM | –

Now from value to molecule, other results behind:

Row | IC50 [1] | Structure (SMILES) | IC50
7 | 29 nM | CCCCCCCCCCCCOP(=O)(CC(=O)Nc1c(C(C)C)cccc1C(C)C)c1ccccc1 (racemic) [Example 12, (±)-[2-[[2,6-Bis(1-methylethyl)phenyl]amino]-2-oxoethyl]phenylphosphinicAcid, Dodecyl Ester] | –
8 | 23 nM | CCCCCCCCCOP(=O)(c1ccccc1)N(CC(=O)Nc1c(C(C)C)cccc1C(C)C)Cc1ccccc1 (racemic) [Example 31, (±)-N-[2-[2,6-Bis(1-methylethyl)phenyl]amino]-2-oxoethyl]-P-phenyl-N-(phenylmethyl)phosphonamidic Acid, Nonyl Ester] | –
9 | 72 nM | CC(C)c1cccc(C(C)C)c1NC(=O)CP(=O)(OCc1ccccc1)OCc1ccccc1 [Example 36, [2-[[2,6-Bis(1-methylethyl)phenyl]amino]-2-oxoethyl]phosphonic Acid, Bis (Phenylmethyl)ester] | –
